Results published in patent publication US4442102A, “1,5-Diphenylpyrazolin-3-one compounds, process and intermediates for preparation thereof and pharmaceutical compositions containing same” (Kali-Chemie Pharma GmbH, priority 1981, dated 1984).

system: passive cutaneous anaphylaxis; assay: Inhibition of passive cutaneous anaphylaxis (PCA test); assay type: in vivo, rats (Wistar); conditions: Rattus norvegicus, po; rats, p.o., 10 minutes before ovoalbumin challenge i.p.
Description: For example, the substances have an inhibiting action on the release of endogenic mediators from mast cells or basophilic leucocytes which leads to allergic reactions. The doses to be used vary, of course, depending on the nature of the substance used, on the mode of administration and on the condition to be treated. In general, however, satisfactory results are achieved in animal experiments with doses of from 0.05 to 75 mg. per kg of body weight.
Description of the test method to determine the inhibition of passive cutaneous anaphylaxis (PCA test, see Arch.int. pharmacology 252 (1981) 316-326).
To prepare the IgE-antiovoalbumin serum, used in the test, by the method of Mota (Immunology 7, (1964) 681) and J. Goose (Immunology 16 (1969) 749), male Wistar rats of 200-250 g. body weight were sensitised by subcutaneous injection of 1 mg. of ovoalbumin and 1 ml. of Bordatella pertussis suspension ("Vaxicoq" Merieux 3.10^10 organisms/ml.). After 14 days, the animals are exsanguinated and the blood is centrifuged. The antiserum thus obtained is stored at […].
Non-sensitised rats are injected, in each case, with 0.1 ml. of antiserum into the skin at four different places on their shaven backs. After 72 hours, a solution of the test compound or, for comparison, only the solvent, is administered orally, and 10 minutes later, 5 mg. of ovoalbumin and 5 mg. of blue dyestuff (Evans blue) in 0.9% strength NaCl solution are administered intraperitoneally. After 30 minutes, the animals are sacrificed and the diameters of the blue spots formed at the sites injected with antiserum are measured. The inhibiting effect of the test substance is determined from the size of the blue spots which appear.
The example numbers given for the compounds of the formula I relate to the preparation Examples below.

In order of falling ED50:
1. O=c1cc(-c2ccccc2)n(-c2ccccc2)n1CCCN1CCN(c2ccc(F)cc2)CC1 [Example 22]  9.8 mg/kg
2. O=c1cc(-c2ccc(Cl)cc2)n(-c2ccccc2)n1CCCN1CCN(c2ccccn2)CC1 [Example 13]  8.5 mg/kg
3. Cc1ccnc(N2CCN(CCCn3c(=O)cc(-c4ccccc4)n3-c3ccccc3)CC2)c1 [Example 27]  8.2 mg/kg
4. O=c1cc(-c2ccccc2)n(-c2ccccc2)n1CCCN1CCN(c2ccccn2)CC1 [Example 1, 1,5-Diphenyl-2-{3-[4-(2-pyridyl)-piperazin-1-yl]-propyl}-pyrazolin-3-one]  0.8 mg/kg
